# Source: patent US20090187484A1, “Soil treatments with carbon dioxide” (Cleareso, LLC, priority 2008, published 2009)
# Key:
# [1] = Solubility and appearance of the aqueous test preparations; assay type: physicochemical
# [2] = test system: Larvae of the root weevil, Diaprepes abbreviatus; assay: Immersion of root weevil larvae in test solutions (mortality, moribund effect); assay type: in vivo; settings: for toxicity judgement for the larvae: 0.1 to 5.0%, test terminated at 24 hours; for black residue across all treatments: control to 5.0%; for Mortality of larvae with individual compounds and formulations: five larvae
# Source text: Larvae and pupae of the root weevil, Diaprepes abbreviatus, were immersed in a variety of compounds to understand their effect on the activity of this pest.
# The criterion for toxicity with these larvae is the lack of nipping behavior and its consequent black residue from blood loss and the lack of spontaneous movement.
# Experimental Design. Larvae and pupae were received from the Florida Dept. of Agriculture's rearing program in Gainesville, Fla. Larvae were shipped as 50-day larvae (larvae that will pupate in about 10 days). Both larvae and pupae were held at 27° C. in 12 hour cycles of light and dark in their containers as separate individuals until experimentation began.
# In the testing, five larvae or pupae were removed from their rearing cups and placed in a 150 ml glass beaker. In testing the Soy Technologies Manufacturer's Base (SMTB), a 5% solution was mixed in either water or carbonated water by adding 10 ml of SMTB to a 250 ml beaker and then adding water or carbonated water to the 200 ml mark. The solutions were then immediately added to the beaker with the larvae or pupae to cover them. Controls with water or carbonated water alone were also included. There was a single tray of five larvae for each treatment at each time period and a five larvae control for each time period. Larvae were removed and placed on plastic weighing trays after 5,10, 15, 20, 25, and 30 minutes. At the end of 30 minutes all organisms were assessed for mortality. Trays with larvae were left on the bench tip for 24 hours and then another mortality assessment was made.
# Concentration Series. With the results from the time series above, larvae were held in different concentrations of STMB for 30 minutes. After 30 minutes, solutions were poured off and the trays wiped dry. Assessments were made at 24 or 48 hours with a few assessments at 72 hours dependent on effects. Treatments were: water or carbonated water as controls, and 0.1, 0.5, 1.0, 2.0, 3.0, 4.0 and 5.0% concentrations in either distilled water or carbonated water. Five larvae were used for each control and treatment. Pupae were not used in this assessment.
compound,measurement,setting,value
"COC(=O)CCC(=O)OC [106-65-0, butanedioic acid, dimethyl ester]",solubility of aqueous preparation,[1]; 0.1% concentration,soluble
same,solubility of aqueous preparation,[1]; 1.0% concentration,just soluble
same,solubility of aqueous preparation,[1]; 3.0% concentration,not soluble
same,solubility of aqueous preparation,[1]; 5.0% concentration,not soluble
same,toxicity judgement for the larvae,[2],non-toxic
same,black residue across all treatments,[2]; 24 hours,all treatments looked just like the control
"COC(=O)CCCCC(=O)OC [627-93-0, Dimethyl hexanedioate]",solubility of aqueous preparation,[1]; 0.1% concentration,soluble
same,solubility of aqueous preparation,[1]; 1.0% concentration,not completely soluble
same,solubility of aqueous preparation,[1]; 3.0% concentration,not completely soluble
same,solubility of aqueous preparation,[1]; 5.0% concentration,not completely soluble
same,appearance (black residue) compared with control,"[2]; 0.1% treatment, 24 hours",looked identical
same,toxicity judgement for the larvae,[2],non-toxic
same,black residue,"[2]; 5.0% treatment, 24 hours",only slightly less black residue than the 3.0% treatment
"COC(=O)CCCC(=O)OC [1119-40-0, pentanedioic acid, dimethyl ester]",survival of larvae after 30 minutes,"[2]; 0.1 to 5.0% treatments, end of 30 minutes immersion",All larvae were alive
same,black residue,"[2]; 3 and 5% treatments, 48 hours",less black residue than the control
Polyoxyethylene 10 tridecylether [24938-91-8],black residue,"[2]; 3 and 5% treatments, 48 hours",less black residue
same,Mortality of larvae with individual compounds and formulations,"[2]; concentration 0.1 percent, 24 hours",0
same,Mortality of larvae with individual compounds and formulations,"[2]; concentration 0.1 percent, 48 hours",0
same,Mortality of larvae with individual compounds and formulations,"[2]; concentration 0.1 percent, 72 hours",0
same,Mortality of larvae with individual compounds and formulations,"[2]; concentration 1.0 percent, 24 hours",2
same,Mortality of larvae with individual compounds and formulations,"[2]; concentration 1.0 percent, 48 hours",2
same,Mortality of larvae with individual compounds and formulations,"[2]; concentration 1.0 percent, 72 hours",2
same,Mortality of larvae with individual compounds and formulations,"[2]; concentration 3.0 percent, 24 hours",0
same,Mortality of larvae with individual compounds and formulations,"[2]; concentration 3.0 percent, 48 hours",0
same,Mortality of larvae with individual compounds and formulations,"[2]; concentration 3.0 percent, 72 hours",0
same,Mortality of larvae with individual compounds and formulations,"[2]; concentration 5.0 percent, 24 hours",0
same,Mortality of larvae with individual compounds and formulations,"[2]; concentration 5.0 percent, 48 hours",3
same,Mortality of larvae with individual compounds and formulations,"[2]; concentration 5.0 percent, 72 hours",3
same,black residue across all treatments,[2]; 24 hours,gradation of black residue from control to 5.0 with 5.0 having the least
